Test results as given in patent US20100221502A1, “Anthrapyridone Compound and Salt Thereof, Magenta Ink Composition Containing the Anthrapyridone Compound, and Colored Article” (priority 2005, published 2010).

Experiments:
Assay type in all cases: physicochemical
[1] = Evaluation of hue on glossy paper (L*, a*, b*, C* of inkjet recorded image); design: key to Lightness L*: CIELAB L* lightness value; key to Chromaticity a*: CIELAB a* chromaticity value; key to Chromaticity b*: CIELAB b* chromaticity value; conditions: for Chroma C*: C*=((a*)^2+(b*)^2)^1/2; for Chromaticity a* / Chromaticity b* / Lightness L*: ink with 6.0 parts compound
Excerpt: The compound (Compound Example No. 1) obtained in the above Example 1 was used to prepare a solution of the composition shown in the following Table 2, which was filtrated with a 0.45 μm membrane filter for removing insoluble matter to obtain each water-based ink composition for inkjet recording. And ion-exchanged water was used as water. In addition, the pH of the ink composition was adjusted to pH=8 to 10 with a 25% caustic soda aqueous solution, and water was further added so that the whole weight was 100 parts. Example 5 is the test using the compound obtained in Example 1.
(§1) Using an ink jet printer (manufactured by Canon Inc., trade name: Pixus 860i), inkjet recording was performed on glossy paper (manufactured by Canon Inc., trade name: Professional Photo Paper PR-101) having an ink image-receiving layer containing porous white inorganic substance and photo paper (glossy) manufactured by SEIKO-EPSON CORPORATION. In inkjet recording, an image pattern was made to obtain gradations of several stages in printing density and a print was made.
For the hue and vividness of recorded image, printed recording paper was measured using a Color Calibration Systems (trade name: GRETAG SPM50, manufactured by GretagMacbeth AG) to calculate values of L*, a* and b*, and chroma (C*) showing vividness was calculated from chromaticity (a*, b*) by C*=((a*)^2+(b*)^2)^1/2. The hue was evaluated by comparing with a sample of standard magenta in Japan Color manufactured by JPMA (Industry Association: Japan Printing Machinery Association).
In this connection, paper used for standard magenta in Japan Color was Japan Color Standard Paper.

[2] = Moisture fastness test of recorded image; design: key: ∘: Bleed is not observed.; Δ: Bleed is observed on small degree.; ×: Bleed is observed on large degree; conditions: 168 hours, 30° C., 85% RH, bleed by visual observation
Procedure: as §1
Using a thermo-hygrostat (manufactured by OHKEN, Co., LTD), pieces of printed testing paper of glossy paper manufactured by Canon, Inc. and glossy paper manufactured by SEIKO-EPSON CORPORATION were left for 168 hours at a temperature of 30° C. and a humidity of 85% RH. Bleed property before and after the test was determined by visual observation and evaluated on 3 levels.
∘: Bleed is not observed.
Δ: Bleed is observed on small degree.
×: Bleed is observed on large degree.

[3] = Xenon light fastness test of recorded image; conditions: any of glossy papers of CANON INC. and SEIKO-EPSON CORPORATION
Procedure: as §1
Using a xenon weatherometer Ci4000 (manufactured by ATLAS Electric Devices Co.), pieces of printed testing paper of glossy paper manufactured by Canon, Inc. and glossy paper manufactured by SEIKO-EPSON CORPORATION, on which an air layer was provided and a glass plate having a thickness of 2 mm was set up, were irradiated for 50 hours at an illuminance of 0.36 W/m^2 under the circumstances of a humidity of 60% RH and a temperature of 24° C. Color difference (ΔE) before and after the test was measured and the evaluation was performed on 3 levels.

[4] = Ozone gas fastness test of recorded image; conditions: any of glossy papers of CANON INC. and SEIKO-EPSON CORPORATION
Procedure: Using an ink jet printer (manufactured by Canon Inc., trade name: Pixus 860i), inkjet recording was performed on glossy paper (manufactured by Canon Inc., trade name: Professional Photo Paper PR-101) having an ink image-receiving layer containing porous white inorganic substance and photo paper (glossy) manufactured by SEIKO-EPSON CORPORATION. In inkjet recording, an image pattern was made to obtain gradations of several stages in printing density and a print was made. Using an ozone weatherometer (manufactured by Suga Test Instruments Co., Ltd.), pieces of printed testing paper of glossy paper manufactured by Canon, Inc. and glossy paper manufactured by SEIKO-EPSON CORPORATION were left for 3 hours under the circumstances of an ozone concentration of 12 ppm, a humidity of 60% RH and a temperature of 24° C. Color difference (ΔE) before and after the test was measured and evaluation was performed on 3 levels. [formula] [formula] [formula]

[5] = Glossy paper manufactured by Canon Inc.
[6] = Glossy paper manufactured by SEIKO-EPSON CORPORATION
[7] = Glossy paper manufactured by CANON INC.

Row | Chroma C* [1, 5] | Chromaticity a* [1, 5] | Chromaticity b* [1, 5] | Lightness L* [1, 5] | Chroma C* [1, 6] | Chromaticity a* [1, 6] | Chromaticity b* [1, 6] | Lightness L* [1, 6] | Moisture fastness [2, 7] | Moisture fastness [2, 6] | Light fastness (in words) [3] | Ozone gas fastness (in words) [4] | Compound
1 | 78.6 | 78.7 | 1.0 | 54.8 | 77.6 | 77.4 | −2.6 | 57.2 | ∘ | ∘ | – | – | O=C(O)c1cc(Nc2nc(O)nc(Nc3cc(Nc4cc(Oc5ccc(-c6ccc(S(=O)(=O)O)cc6)cc5S(=O)(=O)O)c5[nH]c(=O)c(C(=O)c6cccc(S(=O)(=O)O)c6)c6c5c4C(=O)c4ccccc4-6)c(S(=O)(=O)O)cc3S(=O)(=O)O)n2)cc(C(=O)O)c1 [Example 7 (No. 11)]
2 | 88.2 | 88.2 | −2.9 | 57.8 | 82.3 | 82.3 | −1.7 | 56.1 | ∘ | ∘ | – | – | O=C(c1cccc(S(=O)(=O)O)c1)c1c2c3c(c(Nc4cc(Nc5nc(O)nc(Nc6ccccc6S(=O)(=O)O)n5)c(S(=O)(=O)O)cc4S(=O)(=O)O)cc(Oc4ccc(-c5ccc(S(=O)(=O)O)cc5)cc4S(=O)(=O)O)c3[nH]c1=O)C(=O)c1ccccc1-2 [Example 5 (No. 1)]
3 | 81.3 | 81.0 | −6.7 | 49.8 | 80.4 | 79.9 | −9.5 | 49.5 | ∘ | ∘ | has a problem in light fastness | a drawback in ozone gas fastness | Cn1c(=O)cc2c3c(c(Nc4cc(Nc5nc(O)nc(Nc6cc(S(=O)(=O)O)ccc6S(=O)(=O)O)n5)ccc4S(=O)(=O)O)ccc31)C(=O)c1ccccc1-2 [Comparative Example 1, reference compound]
4 | 82.1 | 82.1 | 0.5 | 55.4 | 80.5 | 80.6 | −2.2 | 56.1 | ∘ | ∘ | – | – | O=C(O)c1ccccc1Nc1nc(O)nc(Nc2cc(Nc3cc(Oc4ccc(-c5ccc(S(=O)(=O)O)cc5)cc4S(=O)(=O)O)c4[nH]c(=O)c(C(=O)c5cccc(S(=O)(=O)O)c5)c5c4c3C(=O)c3ccccc3-5)c(S(=O)(=O)O)cc2S(=O)(=O)O)n1 [Example 6 (No. 8)]
